Experimental data from ChEMBL document CHEMBL3352803, “Peripherally restricted CB1 receptor blockers” (Bioorg Med Chem Lett, 2013).
Blank lines part the entries; values can stand above or below the compound they belong to.

Tests used:
[1] = system: Rattus norvegicus; test: Receptor occupancy at CB1 receptor in rat frontal cortex at 10 mg/kg, po; format: functional
[2] = system: Nucleic Acid; test: Ratio of drug uptake in plasma to brain of po dosed mouse; format: ADME, organism-based; details: in vivo
[3] = target: T1, Cannabinoid receptor 1 (Homo sapiens, UniProt P21554); test: Antagonist activity at human CB1 receptor
[4] = system: Brain; test: Drug uptake in rat brain; format: ADME, tissue-based; details: in vivo, read-out: Drug uptake
[5] = system: Brain; test: Drug uptake in mouse brain; format: ADME, tissue-based; details: in vivo, read-out: Drug uptake
[6] = species: Rattus norvegicus; test: Receptor occupancy at CB1 receptor in diet-induced obese rat assessed as weight loss; format: functional
[7] = target: T2, Cannabinoid receptor 1 (Rattus norvegicus, UniProt P20272); test: Antagonist activity at rat CB1 receptor
[8] = system: Nucleic Acid; test: Ratio of drug uptake in plasma to brain of C57BL/6J mouse; format: ADME; details: in vivo
[9] = target: T1, Cannabinoid receptor 1; test: Binding affinity at CB1 receptor (unknown origin)
[10] = target: T1, Cannabinoid receptor 1; test: Inverse agonist activity at human CB1 receptor
[11] = target: T2, Cannabinoid receptor 1; test: Inverse agonist activity at rat CB1 receptor
[12] = target: T1, Cannabinoid receptor 1; test: Binding affinity to human CB1 receptor
[13] = Cmax in rat at 10 mg/kg; format: ADME, organism-based; set-up: dose 10 mg/kg; details: in vivo
[14] = Protein binding in rat plasma at 10 mg/kg; format: ADME, organism-based; set-up: dose 10 mg/kg; details: read-out: PPB
[15] = Lipophilicity, log D of the compound; format: physicochemical; details: octanol/water
[16] = system: Mus musculus; test: Ex vivo binding affinity at CB1 receptor in mouse at 10 mg/kg, iv; format: functional
[17] = system: Rattus norvegicus; test: Receptor occupancy at CB1 receptor in rat frontal cortex at 3 to 10 mg/kg, po; format: functional; details: dose mg/kg 3-10

T1 sequence (P21554 whole entry): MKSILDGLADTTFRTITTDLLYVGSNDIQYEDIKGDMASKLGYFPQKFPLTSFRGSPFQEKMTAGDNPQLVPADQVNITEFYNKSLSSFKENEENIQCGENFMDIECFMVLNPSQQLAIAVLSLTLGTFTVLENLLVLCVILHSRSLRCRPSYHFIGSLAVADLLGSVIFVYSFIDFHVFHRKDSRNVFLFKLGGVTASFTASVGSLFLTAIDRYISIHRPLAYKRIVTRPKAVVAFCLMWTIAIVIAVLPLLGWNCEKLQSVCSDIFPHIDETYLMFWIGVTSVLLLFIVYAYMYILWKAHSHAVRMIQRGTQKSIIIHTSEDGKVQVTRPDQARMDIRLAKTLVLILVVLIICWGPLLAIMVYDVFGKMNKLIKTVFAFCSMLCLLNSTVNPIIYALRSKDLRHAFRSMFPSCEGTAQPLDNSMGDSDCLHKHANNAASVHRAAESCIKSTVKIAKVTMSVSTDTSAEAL
T2 sequence (P20272 whole entry): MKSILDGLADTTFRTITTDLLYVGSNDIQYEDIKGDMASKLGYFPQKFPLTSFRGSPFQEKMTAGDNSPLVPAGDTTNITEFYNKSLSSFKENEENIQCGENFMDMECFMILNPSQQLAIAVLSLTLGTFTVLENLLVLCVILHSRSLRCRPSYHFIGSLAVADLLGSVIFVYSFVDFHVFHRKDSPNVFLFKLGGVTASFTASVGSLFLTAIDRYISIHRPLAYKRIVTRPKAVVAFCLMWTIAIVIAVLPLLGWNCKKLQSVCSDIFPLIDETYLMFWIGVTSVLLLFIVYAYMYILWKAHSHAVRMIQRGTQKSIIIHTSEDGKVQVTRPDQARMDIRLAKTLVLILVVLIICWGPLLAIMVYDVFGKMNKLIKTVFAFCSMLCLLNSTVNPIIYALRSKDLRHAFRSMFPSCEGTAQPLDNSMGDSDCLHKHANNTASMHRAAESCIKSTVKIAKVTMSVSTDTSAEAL

Ratio [2]: 33
Ki [3]: 1 nM
concentration [4]: 50 nM
concentration [5]: 50 nM
SMILES: Cc1c(C(=O)NN2CCS(=O)(=O)CC2)nn(-c2ccc(Cl)cc2Cl)c1-c1ccc(C#CCCC#N)cc1

IC50 [7]: 159 nM
SMILES: Cc1c(/C=C/C(=O)NCc2cccc(Cl)c2)nn(-c2ccc(Cl)cc2Cl)c1-c1ccc(Cl)cc1

IC50 [10]: 631 nM
IC50 [11]: 690 nM
SMILES: CCCCCCc1nc(-c2ccc(Cl)cc2)n(-c2ccc(Cl)cc2Cl)n1

The next lines start with the compound.

SMILES: CN/C(=N\S(=O)(=O)c1ccc(Cl)cc1)N1C[C@H](c2ccccc2)C(c2ccc(Cl)cc2)=N1 [IBIPINABANT]
Occ [1]: 11%

SMILES: C[C@H](NC(=O)C(C)(C)Oc1ccc(C(F)(F)F)cn1)[C@@H](Cc1ccc(Cl)cc1)c1cccc(C#N)c1 [TARANABANT]
Occ [6]: 30%

SMILES: CCc1c(C(=O)NN2CCCCC2)nn(-c2ccc(Cl)cc2Cl)c1-c1ccc(C#Cc2ccc(C(F)(F)F)cc2)s1
Ratio [8]: 33
Ki [9]: 3 nM
Ratio [2]: 1.2
IC50 [10]: 8.5 nM

SMILES: CC1(C)C(=O)N(c2ccc(F)c(C(F)(F)F)c2)C(=O)C1Cc1ccc(F)cc1NC(=O)Nc1ccc(S(N)(=O)=O)cc1 (stereo not given)
IC50 [12]: 10 nM
Ki [12]: 9 nM
Cmax [13]: 430 nM
fraction unbound [14]: < 0.01
logD [15]: 3.66

SMILES: CS(=O)(=O)NCCCn1c(C(=O)N2CCC(C(N)=O)(N3CCC(F)(F)CC3)CC2)cc(-c2ccc(Cl)cc2Cl)c1-c1ccc(Cl)cc1
Activity [16]: 28%

SMILES: Cc1c(C(=O)NN2CCCCC2)nn(-c2ccc(Cl)cc2Cl)c1-c1ccc(Cl)cc1 [RIMONABANT]
Occ [17]: >65%
